Assay results published in patent US6861528B2, “Carboxylated heterocyclic compounds and methods of synthesis” (R.T. Alamo Ventures I, LLC, priority 2002, dated 2005).

System: Protein Serine/Threonine Kinase PKC, non-selective
Test: Protein Serine/Threonine Kinase PKC, non-selective enzyme assay ([32P]histone quantitated)
Assay type: biochemical
Conditions: 1% DMSO vehicle, rat brain enzyme, histone substrate
From the text: In this example, carboxyflosequinan was subjected to biochemical enzyme assays and radioligand binding assays to determine its percent inhibition of a variety of enzyme activities. Tamaoki and Nakano “Potent and specific inhibitors of protein kinase C of microbial origin” Biotechnology 8:732 (1990); Wilkinson et al. “Isoenzyme specificity of bisindolymaleimides, selective inhibitors of protein kinase C” Biochem. J. 294:335 (1993); Tamaki et al. “Staurosporine, a potent inhibitor of phospholipid/Ca++ dependent protein kinase” Biochem. Biophys. Res. Comm, 135:397 (1986). A brief summary of the conditions for each assay is provided below:
Protein Serine/Threonine Kinase PKC, non-selective: The enzyme was obtained from rat brain and the substrate was 370 μg/ml histone. The reaction was pre-incubated 5 min at 25° C., followed by a 15 min incubation at 25° C. in a buffer of 20 mM Tris-HCl, […] and 0.1 mM CaCl2.2HO, pH 7.4. [^32P]histone was quantitated.
FIG. 3 projects data for carboxyflosequinan in the assays described above. In these protein kinase assays, carboxyflosequinan was used in varying concentrations (in 1% DMSO as the vehicle). For the protein serine/threonine kinase (PKC, non-selective), carboxyflosequinan was tested at a concentrations of 100 μM, 300 μM, and 1000 μM. […] (See, FIG. 3).

Measured: inhibition of protein serine/threonine kinase (PKC, non-selective)

Cn1cc([S+]([O-])CC(=O)O)c(=O)c2ccc(F)cc21 (stereo not drawn) [carboxyflosequinan, 3-carboxymethylsulfinyl-7-fluoro-1-methyl-4-quinolone]
greater than 50%: 100 μM carboxyflosequinan | 300 μM carboxyflosequinan | 1000 μM carboxyflosequinan
